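All cell lines were grown in 96-well plates and treated with compound for 48 hours. Abbreviation: GI50, concentration required for 50% inhibition of growth.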 Active and inactive are the calls of the source. Cut-off read from the data, not from the text of the source: active = GI50 up to about 1.1 µM and inactive = higher.
Key:
Test in all cases: DTP human tumour cell line panel, 48 h
[1] = test system: HT-29
[2] = test system: KM12
[3] = test system: LOX IMVI
[4] = test system: SK-MEL-2
[5] = test system: OVCAR-8
[6] = test system: DMS-273
[7] = test system: HOP-62
[8] = test system: EKVX
[9] = test system: UACC-257
[10] = test system: OVCAR-3
[11] = test system: DMS-114
[12] = test system: NCI-H23
[13] = test system: SK-OV-3
[14] = test system: UACC-62
[15] = test system: NCI-H522
[16] = test system: OVCAR-4
[17] = test system: OVCAR-5
[18] = test system: SF-268
[19] = test system: A549
[20] = test system: K562
[21] = test system: SW-620
[22] = test system: U-251
[23] = test system: XF498
[24] = test system: SNB-78
[25] = test system: SNB-75
[26] = test system: COLO 205
[27] = test system: TK-10
[28] = test system: HCT-15
[29] = test system: LXFL 529
[30] = test system: HCC 2998
[31] = test system: DLD-1
[32] = test system: MOLT-4
[33] = test system: SK-MEL-28
[34] = test system: M19-MEL
[35] = test system: ACHN
[36] = test system: NCI-H460
[37] = test system: CAKI-1
[38] = test system: M14
[39] = test system: Malme-3M
[40] = test system: 786-0
[41] = test system: HCT-116
[42] = test system: SNB-19
[43] = test system: SF-539
[44] = test system: HL-60
[45] = test system: A498
[46] = test system: NCI-H226
[47] = test system: SR
[48] = test system: KM-20L2
[49] = test system: HOP-92
[50] = test system: SF-295
[51] = test system: UO-31
[52] = test system: CCRF-CEM
[53] = test system: SK-MEL-5
[54] = test system: SN12C
[55] = test system: IGROV-1
[56] = test system: RXF 393
[57] = test system: HOP-18
[58] = test system: MCF7
[59] = test system: NCI/ADR-RES
[60] = test system: RPMI-8226

SMILES: O=C1CSC(C(/N=N/c2ccccc2)=C2Nc3ccccc3N2)=N1
- GI50 [1]: 83.4 µM (inactive)
- GI50 [2]: 66.1 µM (inactive)
- GI50 [3]: 52.1 µM (inactive)
- GI50 [4]: 53.3 µM (inactive)
- GI50 [5]: 39.1 µM (inactive)
- GI50 [6]: 20.1 µM (inactive)
- GI50 [7]: 23.7 µM (inactive)
- GI50 [8]: 31.1 µM (inactive)
- GI50 [9]: 24.4 µM (inactive)
- GI50 [10]: 27.4 µM (inactive)
- GI50 [11]: 36.1 µM (inactive)
- GI50 [12]: 74.5 µM (inactive)
- GI50 [13]: 18.3 µM (inactive)
- GI50 [14]: 31.8 µM (inactive)
- GI50 [15]: 56.4 µM (inactive)
- GI50 [16]: > 100 µM (inactive)
- GI50 [17]: > 100 µM (inactive)
- GI50 [18]: 36.1 µM (inactive)
- GI50 [19]: 53.2 µM (inactive)
- GI50 [20]: 33.5 µM (inactive)
- GI50 [21]: 93.5 µM (inactive)
- GI50 [22]: 97.9 µM (inactive)
- GI50 [23]: 27.9 µM (inactive)
- GI50 [24]: 46.8 µM (inactive)
- GI50 [25]: 34.4 µM (inactive)
- GI50 [26]: > 100 µM (inactive)
- GI50 [27]: > 100 µM (inactive)
- GI50 [28]: 54.6 µM
- GI50 [29]: 34 µM (inactive)
- GI50 [30]: > 100 µM (inactive)
- GI50 [31]: 64.3 µM (inactive)
- GI50 [32]: 10 µM (inactive)
- GI50 [33]: 29.6 µM (inactive)
- GI50 [34]: 36.7 µM (inactive)
- GI50 [35]: 31 µM (inactive)
- GI50 [36]: 38.6 µM (inactive)
- GI50 [37]: 24.9 µM (inactive)
- GI50 [38]: 70.3 µM (inactive)
- GI50 [39]: 58.3 µM (inactive)
- GI50 [40]: 25.8 µM (inactive)
- GI50 [41]: 32.4 µM (inactive)
- GI50 [42]: 31.9 µM (inactive)
- GI50 [43]: 26.4 µM (inactive)
- GI50 [44]: 35.9 µM (inactive)
- GI50 [45]: 30.7 µM (inactive)
- GI50 [46]: 13.6 µM (inactive)
- GI50 [47]: 12.5 µM (inactive)
- GI50 [48]: > 100 µM (inactive)
- GI50 [49]: 18.5 µM (inactive)
- GI50 [50]: 22.1 µM (inactive)
- GI50 [51]: 95.7 µM (inactive)
- GI50 [52]: 5.79 µM (inactive)
- GI50 [53]: 39.8 µM (inactive)
- GI50 [54]: 66.8 µM (inactive)
- GI50 [55]: > 100 µM (inactive)

SMILES: CC(C)=CCc1c(C)cc2cc3c(c(O)c2c1O)C(=O)C=C(O)C3(CC=C(C)C)C/C=C(\C)CO (centres undefined)
- GI50 [1]: 37.2 µM (inactive)
- GI50 [2]: 41.9 µM (inactive)
- GI50 [3]: 38.5 µM (inactive)
- GI50 [4]: 13 µM (inactive)
- GI50 [5]: 28.8 µM (inactive)
- GI50 [6]: 52.8 µM (inactive)
- GI50 [56]: 29 µM (inactive)
- GI50 [7]: 36.8 µM (inactive)
- GI50 [8]: 35.7 µM (inactive)
- GI50 [9]: 43.7 µM (inactive)
- GI50 [10]: 36.9 µM (inactive)
- GI50 [11]: 38.9 µM (inactive)
- GI50 [12]: 37.4 µM (inactive)
- GI50 [13]: 36.7 µM (inactive)
- GI50 [14]: 32.3 µM (inactive)
- GI50 [57]: 3.61 µM (inactive)
- GI50 [15]: 27.9 µM (inactive)
- GI50 [16]: 37 µM (inactive)
- GI50 [17]: 48.2 µM (inactive)
- GI50 [18]: 36.7 µM (inactive)
- GI50 [19]: 33.3 µM (inactive)
- GI50 [20]: 23.3 µM (inactive)
- GI50 [21]: 39.8 µM (inactive)
- GI50 [22]: 29.6 µM (inactive)
- GI50 [23]: 16.4 µM (inactive)
- GI50 [25]: 48.3 µM (inactive)
- GI50 [26]: 40.5 µM (inactive)
- GI50 [28]: 28 µM
- GI50 [58]: 42.7 µM (inactive)
- GI50 [30]: 45.2 µM (inactive)
- GI50 [31]: 32.7 µM (inactive)
- GI50 [32]: 23.2 µM (inactive)
- GI50 [33]: 46.2 µM (inactive)
- GI50 [34]: 37.4 µM (inactive)
- GI50 [36]: 27.4 µM (inactive)
- GI50 [37]: 46.3 µM (inactive)
- GI50 [39]: 32.3 µM (inactive)
- GI50 [41]: 37 µM (inactive)
- GI50 [42]: 39.8 µM (inactive)
- GI50 [43]: 39.1 µM (inactive)
- GI50 [44]: 19.4 µM (inactive)
- GI50 [45]: 8.81 µM (inactive)
- GI50 [46]: 34.2 µM (inactive)
- GI50 [59]: 47.9 µM (inactive)
- GI50 [48]: 39.9 µM (inactive)
- GI50 [49]: 33.2 µM (inactive)
- GI50 [50]: 45.2 µM (inactive)
- GI50 [51]: 29 µM (inactive)
- GI50 [52]: 11.5 µM (inactive)
- GI50 [53]: 16.4 µM (inactive)
- GI50 [54]: 31.1 µM (inactive)
- GI50 [60]: 20.7 µM (inactive)
- GI50 [55]: 38.1 µM (inactive)

SMILES: CC(C)C(=O)CC(c1ccc(Br)cc1)N1N=C(C(C)C)CC1c1ccc(Br)cc1 (centres undefined)
- GI50 [1]: 18.6 µM (inactive)
- GI50 [2]: > 100 µM (inactive)
- GI50 [3]: 55.8 µM (inactive)
- GI50 [4]: 53.6 µM (inactive)
- GI50 [5]: > 100 µM (inactive)
- GI50 [6]: 38.1 µM (inactive)
- GI50 [56]: 16.9 µM (inactive)
- GI50 [7]: > 100 µM (inactive)
- GI50 [8]: 44.9 µM (inactive)
- GI50 [10]: 70.8 µM (inactive)
- GI50 [11]: 27.9 µM (inactive)
- GI50 [12]: > 100 µM (inactive)
- GI50 [13]: 34.5 µM (inactive)
- GI50 [57]: > 100 µM (inactive)
- GI50 [15]: 65.9 µM (inactive)
- GI50 [16]: > 100 µM (inactive)
- GI50 [17]: > 100 µM (inactive)
- GI50 [18]: > 100 µM (inactive)
- GI50 [19]: 96.8 µM (inactive)
- GI50 [20]: 64.4 µM (inactive)
- GI50 [21]: 93.3 µM (inactive)
- GI50 [22]: 48.8 µM (inactive)
- GI50 [23]: 21 µM (inactive)
- GI50 [26]: > 100 µM (inactive)
- GI50 [27]: > 100 µM (inactive)
- GI50 [28]: 62.4 µM
- GI50 [29]: > 100 µM (inactive)
- GI50 [30]: 34.2 µM (inactive)
- GI50 [32]: 31.3 µM (inactive)
- GI50 [33]: > 100 µM (inactive)
- GI50 [34]: 25.9 µM (inactive)
- GI50 [35]: > 100 µM (inactive)
- GI50 [36]: 51.2 µM (inactive)
- GI50 [37]: > 100 µM (inactive)
- GI50 [38]: 66.1 µM (inactive)
- GI50 [39]: 31.4 µM (inactive)
- GI50 [41]: 29.4 µM (inactive)
- GI50 [42]: 50.7 µM (inactive)
- GI50 [43]: > 100 µM (inactive)
- GI50 [46]: > 100 µM (inactive)
- GI50 [47]: 69 µM (inactive)
- GI50 [48]: 45.3 µM (inactive)
- GI50 [49]: 31.4 µM (inactive)
- GI50 [51]: 68.7 µM (inactive)
- GI50 [52]: 30.5 µM (inactive)
- GI50 [54]: > 100 µM (inactive)
